The structures appear in SMILES notation. ≈ marks a conversion by molar mass, not a printed value. Where only a bound is given, the exact number is not on record here.

Usually IC50 stands for the point on the concentration scale where inhibition reaches its midpoint. Low values mean greater potency, high ones weaker potency. By solubility is commonly meant how much of the substance goes into solution per volume. Higher therefore signals much dissolved substance. The EC50 is the concentration needed to bring the measured effect to its halfway point. Low readings indicate an effect from little substance, high ones a need for much substance.

The nature of series [1]: Chemical stability (degradation kinetics) in acidic aqueous media, HPLC. Type of series: physicochemical. To be noted: acetonitrile/0.1 M aqueous HCl (2:3), pH ca. 1.2, 37° C. How it is done:
Degradation kinetics is used to simulate chemical stability of compounds in the acidic part of the gastro intestinal tract. […] Their application as medical drugs to treat human diseases is therefore less restricted and troublesome. The chemical stability of the compounds of the invention at pH value of ca. 1.2 is determined as follows: Compound is dissolved in an HPLC vial either in a mixture of acetonitrile/0.1 M aqueous HCl (2:3; pH ca. 1.2) or in a mixture of acetonitrile/McIlvaine buffer pH 7.4 (2:3) to get a concentration of approximately 0.25 mg/ml. The vial was then transferred into an HPLC autosampler system and maintained at a temperature of 37° C. A first sample is taken and injected immediately into a standard HPLC system with a UV DAD detector. Further samples are injected after 2, 4, 6, 8 and 10 hours. Degradation of the compound is measured by determining the recovery rate of compound [%] for each injection using an HPLC standard gradient method. Therefore the peak area of the main peak for the first injection (AUt0) is determined and set as 100%. Peak area of the main peak is determined also for the further injections (AUtn, n=2, 4, 6, 8, 10) and expressed as fraction of […][%].

In series [2] the target is T1, cytochrome P450 2C8-isoenzyme (Homo sapiens, UniProt P10632).
T1 construct: is assayed at 37° C. with human liver microsomes; from tissue; host or cells: human liver microsomes
T1 sequence (P10632 1-490): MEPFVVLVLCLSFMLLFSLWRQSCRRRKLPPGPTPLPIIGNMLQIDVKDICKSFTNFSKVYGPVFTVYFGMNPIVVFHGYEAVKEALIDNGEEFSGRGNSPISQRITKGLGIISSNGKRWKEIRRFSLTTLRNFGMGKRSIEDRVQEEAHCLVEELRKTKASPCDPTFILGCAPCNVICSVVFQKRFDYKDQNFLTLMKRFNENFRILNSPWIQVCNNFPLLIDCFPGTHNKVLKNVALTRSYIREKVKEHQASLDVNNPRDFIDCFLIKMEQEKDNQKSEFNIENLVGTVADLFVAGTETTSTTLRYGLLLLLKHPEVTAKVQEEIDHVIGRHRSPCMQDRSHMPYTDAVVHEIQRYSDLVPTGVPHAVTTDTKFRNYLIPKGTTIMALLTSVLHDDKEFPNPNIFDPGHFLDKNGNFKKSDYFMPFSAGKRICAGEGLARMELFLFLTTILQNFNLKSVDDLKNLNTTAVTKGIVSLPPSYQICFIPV
Kind of series: Inhibition of CYP-2C8 (amodiaquine deethylation, human liver microsomes). The series is classed as in vitro ADME. To be noted: human liver microsomes 0.05 mg/mL, amodiaquine 1 μM, 37° C. How it is done: All assays are carried out on a robotic system in 96 well plates. The final incubation volume contains TRIS buffer (0.1 M), MgCl2 (5 mM), human liver microsomes (0.05 mg/mL), amodiaquine (1 μM) and the test compound at five different concentrations or no compound (high control) in duplicate (e.g. highest concentration 10-50 μM with subsequent serial 1:4 dilutions). Following a short preincubation period, reactions are started with the cofactor (NADPH, 1 mM) and stopped by cooling the incubation down to 8° C. and subsequently by addition of one volume of acetonitrile. An internal standard solution—the stable isotope d5-desethylamodiaquine—is added after quenching of incubations. Peak area analyte (=metabolite formed) and internal standard is determined by LC-MS/MS. The resulting peak area ratio analyte to internal standard in these incubations is compared to a control activity containing no test compound. Within each of the assay runs, the IC50 of a positive control inhibitor (Montelukast) is determined. Experimental IC50 values are calculated by least square regression according to the following equation: % control activity=(100% control activity/(1+(I/IC50)S))−B with I=inhibitor concentration; S=slope factor; B=background activity (lower plateau of the inhibition curve) If the inhibition of the reaction is already >50% at the lowest concentration of the test compound, the IC50 is assigned “<lowest concentration tested” (usually <0.4 μM). If the inhibition of the reaction is still <50% at the highest concentration of the test compound, the IC50 is assigned “>highest concentration tested” (usually >50 μM).

Series [3] is described as follows: Aqueous solubility from DMSO stock, LC-UV. The series is classed as physicochemical. To be noted: aqueous buffer, kinetic from dmso stock; buffer pH 2.2, 24 h shaking, 2.5% DMSO. How it is done: The aqueous solubility of the compounds of the invention is determined by comparing the amount dissolved in buffer to the amount in an acetonitrile/water (1/1) solution. Starting from a 10 mM DMSO stock solution aliquots are diluted with acetonitrile/water (1/1) or buffer, respectively. After 24 h of shaking, the solutions are filtrated and analyzed by LC-UV. The amount dissolved in buffer is compared to the amount in the acetonitrile solution. Solubility is usually being measured from 0.001 to 0.125 mg/mL at a DMSO concentration of 2.5%. If more than 90% of the compound is dissolved in buffer, the value is marked with “>”.

In series [4] the target is T2, cytochrome P450 2C9-isoenzyme (Homo sapiens, UniProt P11712).
T2 construct: is assayed at 37° C. with human liver microsomes; from tissue; host or cells: human liver microsomes
Put plainly: Inhibition of CYP-2C9 (diclofenac hydroxylation, human liver microsomes). Type of series: in vitro ADME. The note with it: human liver microsomes 0.1 mg/mL, diclofenac 10 μM, 37° C. How it is done: All assays are carried out on a robotic system in 96 well plates. The final incubation volume contains TRIS buffer (0.1 M), MgCl2 (5 mM), human liver microsomes (0.1 mg/mL), diclofenac (10 μM) and the test compound at five different concentrations or no compound (high control) in duplicate (e.g. highest concentration 10-50 μM with subsequent serial 1:4 dilutions). Following a short preincubation period, reactions are started with the cofactor (NADPH, 1 mM) and stopped by cooling the incubation down to 8° C. and subsequently by addition of one volume of acetonitrile. An internal standard solution—the stable isotope 13C6-hydroxydiclofenac—is added after quenching of incubations. Peak area analyte (=metabolite formed) and internal standard is determined by LC-MS/MS. The resulting peak area ratio analyte to internal standard in these incubations is compared to a control activity containing no test compound. Within each of the assay runs, the IC50 of a positive control inhibitor (sulfaphenazole) is determined. Experimental IC50 values are calculated by least square regression according to the following equation: % control activity=(100% control activity/(1+(I/IC50)S)))−B with I=inhibitor concentration S=slope factor B=background activity (lower plateau of the inhibition curve) If the inhibition of the reaction is already >50% at the lowest concentration of the test compound, the IC50 is assigned “<lowest concentration tested” (usually <0.4 μM). If the inhibition of the reaction is still <50% at the highest concentration of the test compound, the IC50 is assigned “>highest concentration tested” (usually >50 μM).
Background: Microsomes from liver hold many membrane-bound enzymes, among them those of drug oxidation.

For another series, the target named is human GPR40 receptor (Homo sapiens, UniProt O14842). Kind of series: IP1 accumulation measurements using the IPOne assay system. Type of series: cell-based. The note with it: 1321N1 cells stably expressing human GPR40; 1 h stimulation at 37° C. How it is done: IP1 accumulation measurements using the IPOne assay system—1321N1 cells stably expressing human GPR40 receptor (Euroscreen, Belgium) are seeded 24 h before the assay in white 384-well plates in culture medium containing 10% FCS, 1% Na-Pyruvate and 400 μg/mL G418. IP1 is assayed according to the manufacturer's description (Cisbio Bioassays, France). In brief, the assay is started by substitution of the culture medium by stimulation buffer (Hepes 10 mM, CaCl2 1 mM, MgCl2 0.5 mM, KCl 4.2 mM, NaCl 146 mM, glucose 5.5 mM and LiCl 50 mM, pH 7.4). Cells are stimulated for 1 h at 37° C., 5% CO2 by addition of the compounds that are diluted in stimulation buffer containing LiCl. Assays are stopped by adding HTRF-conjugates (IP1-d2 and Anti-IP1 cryptate Tb) and lysis buffer, provided by the manufacturer. After an incubation time of 1 h at room temperature plates are measured using an EnVision™, Perkin Elmer. The obtained fluorescence ratios at 665/615 […] are then used to calculate the pEC50 values using Assay Explorer 3.3 Software (Accelrys, Inc.) by interpolation using an IP1 reference curve and subsequent sigmoidal curve fitting allowing for a variable hill slope.
human GPR40 receptor, sequence (O14842 whole entry): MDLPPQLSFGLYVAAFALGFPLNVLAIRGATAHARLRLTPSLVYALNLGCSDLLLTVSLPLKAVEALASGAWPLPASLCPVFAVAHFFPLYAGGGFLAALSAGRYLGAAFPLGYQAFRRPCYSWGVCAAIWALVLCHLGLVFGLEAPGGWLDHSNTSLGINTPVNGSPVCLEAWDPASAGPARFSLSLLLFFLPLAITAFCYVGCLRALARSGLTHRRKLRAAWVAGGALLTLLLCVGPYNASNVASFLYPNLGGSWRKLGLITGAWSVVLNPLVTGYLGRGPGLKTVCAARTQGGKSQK

T2 sequence (P11712 whole entry): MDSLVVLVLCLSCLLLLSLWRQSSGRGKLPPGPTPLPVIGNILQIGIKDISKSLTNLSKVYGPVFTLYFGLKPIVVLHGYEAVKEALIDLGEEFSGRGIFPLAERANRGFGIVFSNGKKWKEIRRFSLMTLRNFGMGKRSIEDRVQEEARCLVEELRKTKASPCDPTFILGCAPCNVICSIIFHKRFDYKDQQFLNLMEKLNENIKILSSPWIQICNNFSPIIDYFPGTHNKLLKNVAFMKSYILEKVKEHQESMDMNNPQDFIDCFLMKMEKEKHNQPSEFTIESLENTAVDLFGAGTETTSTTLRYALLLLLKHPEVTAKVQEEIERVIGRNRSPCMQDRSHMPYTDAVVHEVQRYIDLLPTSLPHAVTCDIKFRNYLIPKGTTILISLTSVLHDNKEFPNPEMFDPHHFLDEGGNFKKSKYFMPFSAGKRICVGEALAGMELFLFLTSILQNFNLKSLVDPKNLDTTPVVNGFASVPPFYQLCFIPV

On to `Cc1cc(OCCCS(C)(=O)=O)cc(C)c1-c1cccc2c1CC[C@H]2Oc1ccc2c(c1)OC[C@H]2CC(=O)O` [2 (WO 2013/144098), reference compound], for which the “Amount of degradation after 2 h” value in series [1] is reported as 94%. In addition, the IC50 in series [2] was 19 µM.
Take `Cc1cc(OCCC(C)(C)O)cc(C)c1-c1ccc(F)c2c1CC[C@H]2Oc1ccc2c(c1)OC[C@H]2CC(=O)O` [4 (WO 2013/144097), reference compound]: the “Amount of degradation after 2 h” value in series [1] is on record as 13%. The solubility at 24 h in series [3] is < 1 µg/mL. Further, the IC50 came out at 6 µM in series [2] and 21 µM in series [4].
In the same order, the values of `Cc1cc(-c2nnn(C)n2)cc(C)c1-c1ccc(F)c2c1CC[C@H]2Oc1ccc2c(c1)OC[C@H]2CC(=O)O` [95 (WO 2013/144097), reference compound] are 4%, < 1 µg/mL, 9 µM and 19 µM.
As to `Cc1cc(OCCC(C)(C)O)cc(C)c1-c1ccc(F)c2c1CC[C@H]2Nc1cnc2c(c1)OC[C@H]2CC(=O)O` [Example 2, 2-[(3S)-6-{[(1R)-7-Fluoro-4-[4-(3-hydroxy-3-methylbutoxy)-2,6-dimethylphenyl]-2,3-dihydro-1H-inden-1-yl]amino}-2H,3H-furo[3,2-b]pyridin-3-yl]acetic acid], a half-maximal effect at human GPR40 receptor (EC50) was put at 0.061 µM. Also, the “Amount of degradation after 2 h” value in series [1] was 0.2%. In series [3], this molecule came in with a solubility at 24 h of 60 µg/mL (≈ 112 µM). Moreover, the half-maximal inhibitory concentration (IC50) is 32 µM in series [2] and > 50 µM in series [4].
Molecule `Cc1cc(-c2nnn(C)n2)cc(C)c1-c1cccc2c1CC[C@H]2Nc1cnc2c(c1)OC[C@H]2CC(=O)O` [Example 3, 2-[(3S)-6-{[(1R)-4-[2,6-Dimethyl-4-(2-methyl-2H-1,2,3,4-tetrazol-5-yl)phenyl]-2,3-dihydro-1H-inden-1-yl]amino}-2H,3H-furo[3,2-b]pyridin-3-yl]acetic acid] showed an EC50 at human GPR40 receptor of 0.042 µM. Moreover, in series [1], the “Amount of degradation after 2 h” value was <0.5%. This molecule displayed a solubility at 24 h in series [3] of 6 µg/mL (≈ 12.1 µM). In addition, the concentration for half-maximal inhibition (IC50) in series [2] was 29 µM; in series [4], > 50 µM.
`Cc1ccc(Cl)c(-c2cccc3c2CC[C@H]3Nc2cnc3c(c2)OCC3CC(=O)O)c1Cl` (stereo partly drawn) [Example 128, 2-(6-{[(1R)-4-(2,6-dichloro-3-methylphenyl)-2,3-dihydro-1H-inden-1-yl]amino}-2H,3H-furo[3,2-b]pyridin-3-yl)acetic acid]: at human GPR40 receptor, the EC50 is 0.126 µM. The same molecule returned a solubility at 24 h in series [3] of 1 µg/mL (≈ 2.13 µM). The IC50 in series [2] is 14 µM; in series [4] it was > 50 µM.
In the same order, the values of `N#Cc1cccc(C#N)c1-c1cccc2c1CC[C@H]2Nc1cnc2c(c1)OCC2CC(=O)O` (stereo partly drawn) [Example 130, 2-(6-{[(1R)-4-(2,6-Dicyanophenyl)-2,3-dihydro-1H-inden-1-yl]amino}-2H,3H-furo[3,2-b]pyridin-3-yl)acetic acid] are > 10 µM, 84 µg/mL (≈ 192 µM), > 50 µM and > 50 µM.
In the same order, the values of `N#CC1(c2ccccc2-c2cccc3c2CC[C@H]3Nc2cnc3c(c2)OCC3CC(=O)O)CC1` (stereo partly drawn) [Example 131, 2-(6-{[(1R)-4-[2-(1-Cyanocyclopropyl)phenyl]-2,3-dihydro-1H-inden-1-yl]amino}-2H,3H-furo[3,2-b]pyridin-3-yl)acetic acid] are 6.39 µM, 67 µg/mL (≈ 148 µM), 37 µM and > 50 µM.
Take `Cc1nc(-c2cc(C)c(-c3cccc4c3CC[C@H]4Nc3cnc4c(c3)OCC4CC(=O)O)c(C)c2)no1` (stereo partly drawn) [Example 132, 2-(6-{[(1R)-4-[2,6-Dimethyl-4-(5-methyl-1,2,4-oxadiazol-3-yl)phenyl]-2,3-dihydro-1H-inden-1-yl]amino}-2H,3H-furo[3,2-b]pyridin-3-yl)acetic acid]: at human GPR40 receptor, the EC50 came to 0.036 µM. The solubility at 24 h in series [3] turned out to be 3 µg/mL (≈ 6.04 µM). The figures for the IC50 in series [2] and in series [4] were 23 µM and > 50 µM, respectively.
`Cc1cc(-c2cc(=O)n(C)cn2)cc(C)c1-c1cccc2c1CC[C@H]2Nc1cnc2c(c1)OCC2CC(=O)O` (stereo partly drawn) [Example 133, 2-(6-{[(1R)-4-[2,6-Dimethyl-4-(1-methyl-6-oxo-1,6-dihydropyrimidin-4-yl)phenyl]-2,3-dihydro-1H-inden-1-yl]amino}-2H,3H-furo[3,2-b]pyridin-3-yl)acetic acid] returned an EC50 at human GPR40 receptor of 0.033 µM. The molecule further showed a solubility at 24 h in series [3] of 78 µg/mL (≈ 149 µM). The IC50 in series [2] is 21 µM; in series [4] it was > 50 µM.
